This is an account of results in patent US20260092068A1, “PHYSICAL FORMS OF AN INHIBITOR OF PRC2” (ORIC Pharmaceuticals, Inc., priority 2022, published 2026).

The nature of the series: Stability of Form 2 of Compound 1 under storage conditions (impurities by UPLC, solid form by XRPD). It counts as physicochemical. Conditions: for Storage stability: up to 6 months. The procedure: To measure stability of the Form 2 of Compound 1 under storage conditions, samples of Form 2 of Compound 1 were placed in double low-density polyethylene bags with desiccant between the bags and each was placed into a high-density polyethylene drum. One drum was stored at a temperature of 25° C. and 60% relative humidity (RH), and a second drum was stored at a temperature of 40° C. and 75% RH. Samples of the material were taken from both drums at 1 month, 3 months, and 6 months and the samples were analyzed for the presence of impurities. The amount of the Form 2 of Compound 1, and the amount of any impurities, in each sample was measured by ultra-performance liquid chromatography (UPLC) using the test conditions set and solvent gradients forth in Table 5 and Table 6. The samples were tested to determine the amount remaining of Form 2 at each time point, and the measurements were conducted by x-ray powder diffraction (XRPD) according to USP <941>.

[1] abbreviates: 25° C. and 60% RH, Initial (Time = zero).
[2] abbreviates: 40° C. and at 75% RH, Initial (Time = zero).

`Cc1cc(CN(C)C)ccc1-c1cnc(NCc2c(F)ccc3c2CCO3)n2cc(C#N)nc12` [Form 2 of Compound 1, 8-(4-((dimethylamino)methyl)-2-methylphenyl)-5-(((5-fluoro-2,3-dihydrobenzofuran-4-yl)methyl)amino)imidazo[1,2-c]pyrimidine-2-carbonitrile]: the “Total impurities present (% area measured by UPLC)” value runs as follows: under setting [1], 1.4 % area; (25° C. and 60% RH, Time = 1 month) 1.4 % area; (25° C. and 60% RH, Time = 3 months) 1.4 % area; (25° C. and 60% RH, Time = 6 months) 1.4 % area; under setting [2], 1.4 % area; (40° C. and at 75% RH, Time = 1 month) 1.4 % area. Moreover, the “Total impurities present (% area measured by UPLC)” value runs as follows: (40° C. and at 75% RH, Time = 3 months) 1.4 % area; (40° C. and at 75% RH, Time = 6 months) 1.4 % area. In addition, the XRPD entry reads like this: under setting [1], “Crystalline”; (25° C. and 60% RH, Time = 1 month, consistent with T = 0) “Crystalline”; (25° C. and 60% RH, Time = 3 months, consistent with T = 0) “Crystalline”; (25° C. and 60% RH, Time = 6 months, consistent with T = 0) “Crystalline”; under setting [2], “Crystalline”; (40° C. and at 75% RH, Time = 1 month, consistent with T = 0) “Crystalline”. Besides, the XRPD result (40° C. and at 75% RH, Time = 3 months, consistent with T = 0) is listed as “Crystalline”; the XRPD result (40° C. and at 75% RH, Time = 6 months, consistent with T = 0) was “Crystalline”. Moreover, the Storage stability entry by setting is: (stored at 25° C. and 60% RH) “stable”; (stored at 40° C. and at 75% RH) “stable”.
